Experimental data published in patent US7678803B2, “Quinazoline derivatives for the treatment of cancer” (Serenex, Inc., priority 2006, dated 2010).

System: HSP-90 (heat shock protein 90)
Test: Determination of affinity for HSP-90 (elution from purine affinity column); also: key: +++: very high; ++: high; +: moderate
Conditions: relative binding affinity to HSP-90
Method: Affinity of test compounds for HSP-90 is determined as follows: Protein mixtures obtained from a variety of organ tissues (for example: spleen, liver and lung) are reversibly bound to a purine affinity column to capture purine-binding proteins, especially HSP-90. […] The elution profile of Formula I compounds is determined by 1-dimensional SDS polyacrylamide gel electrophoresis. Gels are stained with a fluorescent stain such as sypro ruby (a highly sensitive fluorescent protein stain that can readily detect less than 1 fmol of total protein, i.e., less than 0.04 ng for a 40 kDa protein) or silver nitrate. The gels are imaged using a standard flat bed gel imager and the amount of protein estimated by densitometry. The percent of HSP-90 protein eluted from the column at each concentration is determined and IC50 values are calculated from these estimates.

| Structure (SMILES) | Affinity |
| --- | --- |
| Cc1nn(-c2ccc3c(N)ncc(C(N)=O)c3c2)c2c1C(=O)CC(C)(C)C2 [Compound 99, 1-amino-6-(3,6,6-trimethyl-4-oxo-4,5,6,7-tetrahydro-1H-indazol-1-yl)isoquinoline-4-carboxamide] | ++ |
| Cc1nn(-c2ccc3c(N)ncnc3c2)c2c1C(=O)CCC2 [Compound 88, 1-(4-aminoquinazolin-7-yl)-3-methyl-6,7-dihydro-1H-indazol-4(5H)-one] | + |
| Cc1cn(-c2ccc3c(N)nc(N)nc3c2)c2c1C(=O)CC(C)(C)C2 [Compound 41, 1-(2,4-diaminoquinazolin-7-yl)-3,6,6-trimethyl-6,7-dihydro-1H-indol-4(5H)-one] | +++ |
| CCCCOc1c(-n2cc(C)c3c2CC(C)(C)CC3=O)ccc2c(N)ncnc12 [Compound 53, 1-(4-amino-8-butoxyquinazolin-7-yl)-3,6,6-trimethyl-6,7-dihydro-1H-indol-4(5H)-one] | +++ |
| Cc1cn(-c2ccc3c(N)ncc(C(=O)O)c3c2)c2c1C(=O)CC(C)(C)C2 [Compound 106, 1-amino-6-(3,6,6-trimethyl-4-oxo-4,5,6,7-tetrahydro-1H-indol-1-yl)isoquinoline-4-carboxylic acid] | ++ |
| Cc1cn(-c2ccc3c(N)ncnc3c2O)c2c1C(=O)CC(C)(C)C2 [Compound 68, 1-(4-amino-8-hydroxyquinazolin-7-yl)-3,6,6-trimethyl-6,7-dihydro-1H-indol-4(5H)-one] | +++ |
| Cc1cn(-c2cc(F)c3c(N)ncnc3c2)c2c1C(=O)CC(C)(C)C2 [Compound 63, 1-(4-amino-5-fluoroquinazolin-7-yl)-3,6,6-trimethyl-6,7-dihydro-1H-indol-4(5H)-one] | + |
| Cc1cn(-c2ccc3c(N)ncnc3c2SCCO)c2c1C(=O)CC(C)(C)C2 [Compound 93, 1-(4-amino-8-(2-hydroxyethylthio)quinazolin-7-yl)-3,6,6-trimethyl-6,7-dihydro-1H-indol-4(5H)-one] | +++ |
| Cc1nc(N)c2ccc(-n3cc(C)c4c3CC(C)(C)CC4=O)cc2n1 [Compound 40, 1-(4-amino-2-methylquinazolin-7-yl)-3,6,6-trimethyl-6,7-dihydro-1H-indol-4(5H)-one] | +++ |
| CCCCSc1c(-n2cc(C)c3c2CC(C)CC3=O)ccc2c(N)ncnc12 (stereo not shown) [Compound 72, 1-(4-amino-8-(butylthio)quinazolin-7-yl)-3,6-dimethyl-6,7-dihydro-1H-indol-4(5H)-one] | ++ |
| COc1cc(-n2cc(C)c3c2CC(C)(C)CC3=O)cc2ncnc(N)c12 [Compound 76, 1-(4-amino-5-methoxyquinazolin-7-yl)-3,6,6-trimethyl-6,7-dihydro-1H-indol-4(5H)-one] | ++ |
| CC(C)Cc1nn(-c2ccc3c(N)ncnc3c2)c2c1C(=O)CC(C)(C)C2 [Compound 87, 1-(4-aminoquinazolin-7-yl)-3-isobutyl-6,6-dimethyl-6,7-dihydro-1H-indazol-4(5H)-one] | +++ |
| Cc1nn(-c2ccc3c(N)ncc(C#N)c3c2)c2c1C(=O)CC(C)(C)C2 [Compound 98, 1-amino-6-(3,6,6-trimethyl-4-oxo-4,5,6,7-tetrahydro-1H-indazol-1-yl)isoquinoline-4-carbonitrile] | ++ |
| C#CCOc1cc(-n2cc(C)c3c2CC(C)(C)CC3=O)cc2ncnc(N)c12 [Compound 71, 1-(4-amino-5-(prop-2-ynyloxy)quinazolin-7-yl)-3,6,6-trimethyl-6,7-dihydro-1H-indol-4(5H)-one] | + |
| Cc1cn(-c2ccc3c(N)ncnc3c2)c2c1C(=O)CCC2 [Compound 45, 1-(4-aminoquinazolin-7-yl)-3-methyl-6,7-dihydro-1H-indol-4(5H)-one] | ++ |
| Cc1cn(-c2ccc3c(N)ncnc3c2SCCNC(=O)OC(C)(C)C)c2c1C(=O)CC(C)(C)C2 [Compound 77, tert-butyl 2-(4-amino-7-(3,6,6-trimethyl-4-oxo-4,5,6,7-tetrahydro-1H-indol-1-yl)quinazolin-8-ylthio)ethylcarbamate] | ++ |
